Data: patent publication US9155814B2, “Nanostructured material formulated with bone cement for effective antibiotic delivery” (priority 2009, dated 2015)

Experiment: In vitro drug release study in PBS buffer
Format: physicochemical
Conditions: for percentage released: over 70 days, MSN functionalized bone cement loaded with gentamicin and ibuprofen, FIG. 14; for percentage released from the bone cement: MSN-formulated bone cement loaded with gentamicin and indomethacin, FIG. 15, 80 days stated for gentamicin; for amount released as a percentage to the amount loaded: after 80 days, MSN-functionalized bone cement loaded with gentamicin and vancomycin, FIG. 13; for gentamicin released: FIG. 8
Description: The drug release study was conducted by socking two cylinder samples of each composition in 5 ml PBS buffer (pH 7.4). The sample was put in an incubator shaker operated at 37° C. and 40 rpm. The release medium was withdrawn at predetermined time intervals, and replaced with fresh PBS buffer (5 ml) each time. The accumulative amount of gentamicin released was calculated based on the initial weight of bone cement cylinder and the drug content. The gentamicin release was followed for 80 days.
The o-phthaldialdehyde was used as a derivatizing agent to react with the amino groups of gentamicin and yield chromophoric products. The reaction was carried out making 1 ml of our problem gentamicin in solution react with 1 ml of isopropanol (to avoid the precipitation of the products formed) and 1 ml of o-phthaldialdehyde reagent. After fully mixed, the concentration of gentamicin sulfate was determined by the UV absorbance at 332 nm.
The concentration of ibuprofen, vancomycin and indomethacin was directly determined by UV-vis detection without the presence of reactive reagent.

| Compound | percentage released | percentage released from the bone cement | amount released as a percentage to the amount loaded | gentamicin released when loaded alone (MSN-functionalized bone cement, gentamicin alone) | gentamicin released (SmartSet HV composite bone cement with 2 wt % of MSN) | gentamicin released (SmartSet HV composite bone cement with 6.0 wt % of MSN) |
| --- | --- | --- | --- | --- | --- | --- |
| CC(C)Cc1ccc(C(C)C(=O)O)cc1 (stereo not drawn) [ibuprofen] | 47% |  |  |  |  |  |
| COc1ccc2c(c1)c(CC(=O)O)c(C)n2C(=O)c1ccc(Cl)cc1 [indomethacin] |  | 15% |  |  |  |  |
| CN[C@H](CC(C)C)C(=O)N[C@H]1C(=O)N[C@@H](CC(N)=O)C(=O)N[C@H]2C(=O)N[C@H]3C(=O)N[C@H](C(=O)N[C@H](C(=O)O)c4cc(O)cc(O)c4-c4cc3ccc4O)[C@H](O)c3ccc(c(Cl)c3)Oc3cc2cc(c3O[C@@H]2O[C@H](CO)[C@@H](O)[C@H](O)[C@H]2O[C@H]2C[C@](C)(N)[C@H](O)[C@H](C)O2)Oc2ccc(cc2Cl)[C@H]1O [vancomycin] |  |  | 31% |  |  |  |
| gentamicin | 90% | 51% | 40.8% | 70% | much lower | more than 55% |
